Measurements from patent US5776720A, “Assay reagent” (priority 1995, dated 1998).

Columns and labels:
Assay type in all cases: cell-based, human
Parameters in all cases: unit not given here
Conditions in all cases: normal donors
[1] = tested on: granulocytes; assay: Normal leukocyte enzyme activity (Table 3A), granulocytes
Excerpt: (§1) The measured fluorescence intensity can be converted from mean channel fluorescence (in peak or integrated mode) to MESF (molecules of equivalent soluble fluorochrome, Flow Cytometry Standards Corp. , San Juan, Puerto Rico) or International Units of hydrolysis per cell. A normal range of enzyme activity is established by assaying males and females in sufficient quantity to characterize the population levels statistically.
(§2) A normal in house adult donor pool was drawn, recording sex and determining that no known disease state was present at the time of sample draw. Criteria for rejecting samples included patients under medication, patients with infection or inflammation of any type, colds and flu as well as any known medical illness such as cancer, heart ailment and high blood pressure. A donor list of 75 patients has been developed and a mean and 2 sd range established. A subgroup of "super normals" was developed from this list by examining the 75 patients to determine which group falls closest to the mean for all enzymes in all cell types tested. These patients were used as the "wellness index" or best group of "normalcy" patients. If a study required the use of children or newborns then this same format was used to develop a data base for these age groups.

[2] = tested on: lymphocytes; assay: Normal leukocyte enzyme activity (Table 3A), lymphocytes
Excerpt: as §1, §2

[3] = tested on: monocytes; assay: Normal leukocyte enzyme activity (Table 3A), monocytes
Excerpt: as §1, §2

Row | SMILES | NORMAL LEUKOCYTE ENZYME ACTIVITY, GRANS Mean [1] | NORMAL LEUKOCYTE ENZYME ACTIVITY, LYMPHS Mean [2] | NORMAL LEUKOCYTE ENZYME ACTIVITY, MONOS Mean [3]
1 | CCCCCC(=O)Oc1ccc2c(c1)Oc1cc(OC(=O)CCCCC)ccc1C21OC(=O)c2ccccc21 [DIHEX 7.5, FL(hexanoate)2] | 17.57 | 7.54 | 37.22
2 | CCC(=O)Oc1ccc2c(c1)Oc1cc(OC(=O)CC)ccc1C21OC(=O)c2ccccc21 [DIPRO 7.6, FL(propionate)2] | 429.17 | 96.34 | 
3 | CCCCCCCCCCCCCCCC(=O)Oc1ccc2c(c1)Oc1cc(OC(=O)CCCCCCCCCCCCCCC)ccc1C21OC(=O)c2ccccc21 [DIPAL 6.5, FL(palmitate)2] | 0.14 | 0.15 | 0.30
4 | CC(C)[C@H](N)C(=O)N[C@@H](CO)C(=O)Nc1ccc2c(c1)Oc1cc(NC(=O)[C@H](CO)NC(=O)[C@@H](N)C(C)C)ccc1C21OC(=O)c2ccccc21 [VS, (H--L--Val--Ser)2 Rho 110.2TFA] | 8.27 | 3.81 | 19.61
5 | C[C@@H](O)[C@H](NC(=O)OCc1ccccc1)C(=O)N1CCC[C@H]1C(=O)Nc1ccc2c(c1)Oc1cc(NC(=O)[C@@H]3CCCN3C(=O)[C@@H](NC(=O)OCc3ccccc3)[C@@H](C)O)ccc1C21OC(=O)c2ccccc21 [Z--TP6.5, (carbobenzyloxycarbonyl-Thr-Pro)2 Rho 110 (pH 6.5)] | 58.05 | 21.97 | 49.69
6 | CCC(=O)Oc1ccc2c(c1)Oc1cc(OC(=O)CC)ccc1C21OC(=O)c2ccccc21 [DIPRO 6.5, FL(propionate)2] | 349.18 | 86.11 | 441.65
7 | CC(=O)Oc1ccc2c(c1)Oc1cc(OC(C)=O)ccc1C21OC(=O)c2ccccc21 [DIACET 7.5, Fluorescein (acetate)2, reference compound] | 348.01 | 89.30 | 432.78
8 | O=C(CCl)Oc1ccc2c(c1)Oc1cc(OC(=O)CCl)ccc1C21OC(=O)c2ccccc21 [CHLOAC, FL(chloroacetate)2] | 6.48 | 2.49 | 7.33
9 | N[C@@H](CC(=O)O)C(=O)Nc1ccc2c(c1)Oc1cc(NC(=O)[C@@H](N)CC(=O)O)ccc1C21OC(=O)c2ccccc21 [ASP, (H--L--Asp)2 --Rho 110.2TFA] | 0.45 | 0.26 | 0.66
10 | CCCCCCC(=O)Oc1ccc2c(c1)Oc1cc(OC(=O)CCCCCC)ccc1C21OC(=O)c2ccccc21 [DIHEP 7.5, FL(heptanoate)2] | 20.41 | 9.73 | 36.15
11 | N[C@@H](CO)C(=O)Nc1ccc2c(c1)Oc1cc(NC(=O)[C@@H](N)CO)ccc1C21OC(=O)c2ccccc21 [SER, (H--L--Ser)2 Rho 110.2TFA] | 3.40 | 1.35 | 6.49
12 | CC(C)[C@H](N)C(=O)N[C@@H](CCCCN)C(=O)Nc1ccc2c(c1)Oc1cc(NC(=O)[C@H](CCCCN)NC(=O)[C@@H](N)C(C)C)ccc1C21OC(=O)c2ccccc21 [VK, (Val-Lys)2 Rho 110] |  | 1.87 | 20.38
13 | O=C1OC2(c3ccc(OC4O[C@H](CO)[C@H](O)[C@H](O)[C@H]4O)cc3Oc3cc(OC4O[C@H](CO)[C@H](O)[C@H](O)[C@H]4O)ccc32)c2ccccc21 (stereo partly drawn) [GALAC, (D-galactose)2 fluorescein] | 1.58 | 0.38 | 5.94
